Results published in EP0013784B1, “C-Substituted naphthalenemonosulfonic ureides, process for their preparation and pharmaceutical compositions containing them” (AMERICAN CYANAMID COMPANY, priority 1979, dated 1980).
Several values for one entry are separate records, joined by “and”; a condition that tells them apart may be missing. Equal entries are not always repeated. Structures can show the parent of a compound that is named as a salt. Where two headings read alike, the source gives them in different places. Each block holds one molecule with its values, some of them ahead of it.

Experiments:
[1] = target: T1, human skin fibroblast collagenase (Homo sapiens, UniProt P03956); experiment: Collagenase Assay, Test Code 006 (degradation of 14C-labeled native collagen fibrils); type: biochemical; details: test conc.: 30 μg./ml.
T1 construct: endogenous in cells
T1 sequence (P03956 100-469): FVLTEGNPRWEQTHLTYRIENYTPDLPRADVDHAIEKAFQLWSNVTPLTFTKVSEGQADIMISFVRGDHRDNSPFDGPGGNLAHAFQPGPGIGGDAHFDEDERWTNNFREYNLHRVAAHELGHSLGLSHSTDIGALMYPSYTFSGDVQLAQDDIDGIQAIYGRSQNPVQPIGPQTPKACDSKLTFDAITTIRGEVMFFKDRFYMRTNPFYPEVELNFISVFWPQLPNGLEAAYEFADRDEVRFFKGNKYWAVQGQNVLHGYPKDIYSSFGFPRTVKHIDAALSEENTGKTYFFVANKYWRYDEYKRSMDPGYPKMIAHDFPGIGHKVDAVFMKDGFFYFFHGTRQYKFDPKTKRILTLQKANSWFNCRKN
Experimental: (§1) An active inhibitor would inhibit the degradation of the collagen fibril; (iii) Leukocyte Neutral Proteases Inhibitor Assay - This test measures the ability of neutral proteases derived from human leukocytes to degrade radiolabeled proteoglycans entrapped in polyacrylamide beads.
Collagenase assays were performed by a modification of the method of Harper, et al., Biochem.,-10, 3035 (1971). In a typical assay (total volume of 0.45 ml.), 100 pI. of the activated enzyme was added to the ^14C-labeled collagen fibrils (250 µl.) followed by 100 pl. of 50 mM cacodylate, pH 7.4, containing 5 mM calcium chloride. After incubation at 37°C. for 16 hours, the tubes were centrifuged in a Beckman microfuge for five minutes at full speed. An aliquot (200 pl.) of the supernatant, representing collagenase digestion products of the fibril, was assayed for radioactivity. […] Appropriate blanks and trypsin controls were run in parallel.
The activities are expressed as % inhibition (lowering) of collagenase activity, i.e. based on the 0% value for the enzyme control.

[2] = test system: collagenase; details: as reported in Thromb. Res. 1977, 10(4), 605-11; cited from earlier work
[3] = test system: Gingival Crevicular Fluid Collagenase; experiment: Crevicular Fluid Assay (gingival crevicular fluid collagenase degrading 14C-collagen fibrils); type: biochemical, human; details: Diseased crevicular fluid + 30 mcg./ml. of compound; about 90 hours at 37°C.; diseased fluid alone 66 ± 9; p<0.0005
Excerpt: as §1
Since studies by Golub, et al., Dental Res., 55, 1049 (1976) have shown that the crevicular collagenase plays a major role in the degradation of collagen in periodontal tissue, the effect of test compounds on collagen degradation by this system was examined. A volunteer with diagnosed periodontal disease was used. […] After one minute, the filter paper strip was removed and the volume of the gingival crevicular fluid was measured with the aid of the Periotron (Harco Electronics, Ltd., Winnipeg, Canada). The volume of the fluid gathered from the crevice by the filter paper strip is translated by a unique transducer onto a digital readout screen. […] After reading on the meter, 1 µl. of trypsin (1.5 µg./ml.) was added to the filter paper (to activate any latent collagenase present) and after five minutes at room temperature 1 pI. of aprotonin was added. […] The tubes were centrifuged as described above and a 200 µl. aliquot of the clear supernatant was assayed for radioactivity.

[4] = test system: neutral proteases derived from human leukocytes; experiment: Leukocyte Neutral Proteases Inhibitor Assay (3H/35S labeled proteoglycans entrapped in polyacrylamide beads); type: biochemical; details: for Percent Inhibition of Neutral Protease Activity ^3H: 3H label; for Percent Inhibition of Neutral Protease Activity ^35S: 35S label
Experimental: as §1
This assay system contained (total volume of 1 ml.) 60 mM Tris-CI, pH 7.4; 2.5 mM calcium chloride; 2.5 mM magnesium chloride; 2 mg. (dry weight) of polyacrylamide beads entrapped with labeled proteoglycans, and an aliquot of the leukocyte neutral protease preparation. The reaction mixture was incubated at 37°C. for 30 minutes in a shaking water bath. The reaction was terminated by the addition of 0.2 mi. of 5% SDS in 5% HCI (v/v). After five minutes at room temperature the mixture was centrifuged and the clear supernatant (0.6 ml.) was assayed for radioactivity. To determine the effect of the test compounds on degradation of proteoglycans by neutral proteases, various concentrations of the compounds were added to the reaction mixture. Appropriate blanks were included.

[5] = test system: fibroblast collagenase and leukocyte neutral protease; experiment: Enzymatic Degradation of Collagen of Human Gingiva (hydroxyproline content of residual tissue); type: biochemical; details: 36 hours at 37°C., enzymes alone 102.3
Experimental: The test compounds are able to inhibit the degradation of collagen of gingival tissue. Dried pieces of human gingiva were incubated at 37°C. for 36 hours with fibroblast collagenase and leukocyte neutral protease in the presence of test compound (30 and 50 µg./ml.). Antibiotics were present to prevent bacterial growth. After incubation, the residual tissue was hydrolyzed in 6N hydrochloric acid and the hydroxy-proline content (collagen) was determined. When collagenase and neutral protease were added to human gingiva, approximately 100 µg of collagen/mg. dry tissue was digested. If the test compound was present, degradation of gingival collagen was inhibited.

[6] = DMA = Dimethylacetamide, read-out: % Inhibition of Collagenase (DMA)
[7] = compound in distilled water, 16 hours at 37°C., repeat determinations, read-out: % Inhibition of Collagenase
[8] = compound in distilled water, 16 hours at 37°C., repeat determinations

inhibition at 30 µg/mL [1, 6]: 81%
SMILES: O=C(Nc1cccc(C(=O)Nc2ccc3cc(S(=O)(=O)O)cc(O)c3c2)c1)Nc1cccc(C(=O)Nc2ccc3cc(S(=O)(=O)O)cc(O)c3c2)c1 [6,6'-[Ureylenebis(m-phenylenecarbonylimino)]bis[4-hydroxy-2-naphthalenesulfonic acid]disodium salt]

inhibition at 30 µg/mL [1, 7]: 73%
SMILES: Cc1ccc(C(=O)Nc2ccc3cc(S(=O)(=O)O)cc(O)c3c2)cc1NC(=O)Nc1cc(C(=O)Nc2ccc3cc(S(=O)(=O)O)cc(O)c3c2)ccc1C [6,6'-[Ureylenebis(4-methyl-3,1-phenylene)carbonyliminolbis[4-hydroxy-2-naphthalenesulfonic acid]-disodium salt]

% Inhibition of Collagenase [1, 8]: 92% and 69% | cpm Collagen Degraded/Unit Periotron Reading [3]: 16 ± 6 cpm | mcg. of Collagen degraded per mg. of dry gingiva ([5]; neutral proteases plus 30 mcg./ml. of compound): 60.4 mcg. per mg. of dry gingiva | mcg. of Collagen degraded per mg. of dry gingiva ([5]; neutral proteases plus 50 mcg./ml. of compound): 27.4 mcg. per mg. of dry gingiva
SMILES: O=C(Nc1cccc(C(=O)Nc2ccc3cc(S(=O)(=O)O)cc(O)c3c2)c1)Nc1cccc(C(=O)Nc2ccc3cc(S(=O)(=O)O)cc(O)c3c2)c1 [6,6'-[Ureylenebis(3,1-phenyl-enecarbonylimino)]bis[4-hydroxy] [6,6'-[Ureylenebis(m-phenylenecarbonylimino)]bis[4-hydroxy-2-naphthalenesulfonic acid]disodium salt]
Percent Inhibition of Neutral Protease Activity ^3H ([4]; 0.5 mcg./ml.): 0% | Percent Inhibition of Neutral Protease Activity ^35S ([4]; 0.5 mcg./ml.): 0% | Percent Inhibition of Neutral Protease Activity ^3H ([4]; 1.0 mcg./ml.): 17% | Percent Inhibition of Neutral Protease Activity ^35S ([4]; 1.0 mcg./ml.): 31% | Percent Inhibition of Neutral Protease Activity ^3H ([4]; 2.0 mcg./ml.): 21% | Percent Inhibition of Neutral Protease Activity ^35S ([4]; 2.0 mcg./ml.): 37% | Percent Inhibition of Neutral Protease Activity ^3H ([4]; 5.0 mcg./ml.): 47% | Percent Inhibition of Neutral Protease Activity ^35S ([4]; 5.0 mcg./ml.): 74% | Percent Inhibition of Neutral Protease Activity ^3H ([4]; 10.0 mcg./ml.): 63% | Percent Inhibition of Neutral Protease Activity ^35S ([4]; 10.0 mcg./ml.): 91%

The next lines start with the molecule.

SMILES: Cc1ccc(C(=O)Nc2ccc(S(=O)(=O)O)c3cc(S(=O)(=O)O)cc(S(=O)(=O)O)c23)cc1NC(=O)c1cccc(NC(=O)Nc2cccc(C(=O)Nc3cc(C(=O)Nc4ccc(S(=O)(=O)O)c5cc(S(=O)(=O)O)cc(S(=O)(=O)O)c45)ccc3C)c2)c1 [Suramin]
inhibition of the activity of collagenase [2]: not inhibiting the action of collagenase

SMILES: O=C(Nc1cccc(C(=O)Nc2ccc(S(=O)(=O)O)c3cccc(O)c23)c1)Nc1cccc(C(=O)Nc2ccc(S(=O)(=O)O)c3cccc(O)c23)c1 [4,4'-[Ureylenebis(m-phenylenecarbonylimino)]bis-5-hydroxy-1-2-naphthalen,3sulfonic acid, disodium salt]
% Inhibition of Collagenase ([1]; compound in distilled water, 16 hours at 37°C., repeat determinations, disodium salt): 84% and 69% and 60% and 55%

SMILES: Cc1cc(-c2ccc(/N=N/c3c(S(=O)(=O)O)cc4cc(S(=O)(=O)O)cc(N)c4c3O)c(C)c2)ccc1/N=N/c1c(S(=O)(=O)O)cc2cc(S(=O)(=O)O)cc(N)c2c1O [trypan blue]
inhibition of the activity of collagenase [2]: inhibiting the activity of collagenase, or a proteinase contaminant in the collagenase preparation

SMILES: O=C(Nc1ccc(C(=O)Nc2ccc3cc(S(=O)(=O)O)cc(O)c3c2)cc1)Nc1ccc(C(=O)Nc2ccc3cc(S(=O)(=O)O)cc(O)c3c2)cc1 [6,6-'Ureylenebis(p-phenylenecarbonylimino)bis[4-hydroxy-2-naphthalenesulfonic acid]-tetrasodium salt]
% Inhibition of Collagenase [1, 8]: 92%

SMILES: O=C(Nc1ccc(C(=O)Nc2ccc3cc(S(=O)(=O)O)cc(O)c3c2)cc1)Nc1ccc(C(=O)Nc2ccc3cc(S(=O)(=O)O)cc(O)c3c2)cc1 [6,6'-[Ureylenebis(p-phenylenecarbonylimino)]bis[4-hydroxy-2-naphthalenesulfonic acid acid], disodium salt]
inhibition at 30 µg/mL [1, 6]: 96% | inhibition at 30 µg/mL [1, 7]: 86%
